A short description of data set [1]: metabolic stability in mouse liver microsomes. It is filed as in vitro ADME. Particulars: mouse liver microsomes. The method, then: (§1) The metabolic stability of compound 22 was tested prior to the next phase of in vivo study. […] The maximum tolerated dose (MTD) study was subsequently performed to investigate its in vivo toxicity (FIGS. 4A and 4B). The second major limitation of Pyr3 is its toxicity due to its alkylating tail moiety. While replacing only the fast-metabolizing head ester group in Pyr3 with a stable amide (compound 79) improved metabolic stability, a single IP injection of compound 79 at 200 mg/kg killed all mice within 24 h.
In general terms: Liver microsomes are vesicles of endoplasmic reticulum, rich in cytochrome P450 enzymes.

A short description of data set [2]: metabolic stability in rat liver microsomes. It is filed as in vitro ADME. The note with it: rat liver microsomes. As to the method: as §1
Data set [3] in a line: metabolic stability in human liver microsomes. The note with it: human liver microsomes. It is filed as in vitro ADME. The method, then:
as §1

Data set [4] has as its system hippocampal neurons. As to the kind of experiment: neuroprotection against Aβ-containing conditioned medium (7PA2) in primary hippocampal neurons. It is filed as cell-based, rat. The note with it: 14 DIV neurons, 7PA2 medium, 16 hours, different concentrations. The method, then:
To visualize dendritic spines, 14 DIV hippocampal neurons at low density (5,000 cells per 35 mm dish) were exposed to 7PA2 conditioned media (CM), which contains naturally secreted Aβ, or CHO control media or for 16 h, with or without cotreatment with the two inhibitor compounds, followed by immunocytochemistry with MAP2 and DAPI counterstaining.
(§2) To explore the potential biological effects of compound 22 in a TRPC3 related disease model, its neuroprotective ability in primary cultured neurons (14 DIV prepared from E17 rats as described) was evaluated. The effects on neuron dendritic morphology were measured by imaging. Mature hippocampal neurons (DIV=14) were treated with CHO control medium, or naturally secreted Aβ-containing conditioned medium (7PA2), or in combination with compound 22 or Pyr3 at different concentrations, for 16 hours, followed by immunocytochemistry using an antibody against MAP2 and DAPI (data not shown). […] Hippocampal neurons (DIV=14) were treated with compound 22 or Pyr3 alone at different concentrations, followed by immunocytochemistry staining with MAP2 and DAPI (data not shown).

For data set [5], the system named is hippocampal neurons. Nature of the data set: toxicity of compound alone in hippocampal neuronal culture. It is filed as cell-based, rat. The note with it: compound alone at different concentrations. The method, then: as §2
Data set [6] has as its target T1, TRPC3 (Homo sapiens, UniProt Q13507).
T1 sequence (Q13507 1-921): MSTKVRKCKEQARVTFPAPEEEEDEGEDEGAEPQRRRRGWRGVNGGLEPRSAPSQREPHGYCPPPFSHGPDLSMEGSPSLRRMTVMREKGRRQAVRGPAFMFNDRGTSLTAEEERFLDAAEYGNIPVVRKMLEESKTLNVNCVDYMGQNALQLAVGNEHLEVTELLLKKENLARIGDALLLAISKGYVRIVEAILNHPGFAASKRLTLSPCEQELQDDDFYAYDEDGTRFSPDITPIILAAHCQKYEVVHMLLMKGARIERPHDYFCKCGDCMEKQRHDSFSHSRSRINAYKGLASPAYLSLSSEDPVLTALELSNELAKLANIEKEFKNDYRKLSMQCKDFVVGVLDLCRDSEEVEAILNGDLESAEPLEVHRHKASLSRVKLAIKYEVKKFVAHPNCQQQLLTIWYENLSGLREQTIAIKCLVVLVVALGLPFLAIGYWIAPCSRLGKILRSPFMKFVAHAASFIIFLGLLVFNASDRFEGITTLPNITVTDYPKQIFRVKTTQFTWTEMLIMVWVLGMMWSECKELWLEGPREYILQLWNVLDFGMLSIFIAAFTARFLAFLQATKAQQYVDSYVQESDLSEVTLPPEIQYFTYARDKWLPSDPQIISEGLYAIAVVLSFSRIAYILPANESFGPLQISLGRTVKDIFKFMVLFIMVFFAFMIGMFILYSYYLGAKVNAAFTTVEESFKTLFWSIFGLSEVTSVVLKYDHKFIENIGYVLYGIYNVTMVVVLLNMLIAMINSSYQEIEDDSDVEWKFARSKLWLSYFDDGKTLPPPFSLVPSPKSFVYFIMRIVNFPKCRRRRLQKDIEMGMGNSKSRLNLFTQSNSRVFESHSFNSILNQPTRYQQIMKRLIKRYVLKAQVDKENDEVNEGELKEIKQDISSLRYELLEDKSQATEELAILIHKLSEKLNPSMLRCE
The note with it: literature ref 20; read-out: reported IC50 for suppression of TRPC3; cited from earlier work.

The target in data set [7] is T1, TRPC3. Nature of the data set: whole-cell patch clamp of HEK293 cells transfected with hTRPC3, currents activated by GSK1702934A. In kind it is cell-based. Details: expressed in transfected cells; host or cells: HEK293 (CRL-1573), transient transfection, pMO vector. The method, then: Human embryonic kidney 293 (HEK293; catalog number CRL-1573) cells were cultured in Dulbecco's modified Eagle's medium (Invitrogen) supplemented with 10% fetal bovine serum and 1% penicillin-streptomycin at 37° C. and 5% CO2. Constructs cloned in pMO (a pcDNA3-modified vector) were co-transfected with GFP-pMO, using Lipofectamine 2000 (Invitrogen) according to the manufacturer's instructions. Macroscopic currents in the whole-cell patch clamp configuration were recorded 18-24 h post-transfection. The extracellular solution contained 140 mM NaCl, 6 mM KCl, 2 mM MgCl2, 10 mM HEPES, and 10 mM glucose (pH 7.4). Pipettes were made of borosilicate glass (outer diameter, 1.5 mm; inner diameter, 1.10 mm; Sutter Instruments) and fire-polished with a resistance between 2.8 and 4.0 megaohms when filled with an intracellular solution that contained 140 mM CsCl, 5 mM EGTA, and 10 mM HEPES, pH 7.2. Currents were recorded with a Multiclamp 700B amplifier (Molecular Devices) using a 1-s ramp from −100 to 100 mV. Agonist and antagonists perfused were dissolved in the bath solution prior experiments: TRP channel agonists Allyl isothiocyanate (AITC; TRPA1), capsaicin (TRPV1), and menthol (TRPM8) were obtained from Sigma, GSK1016790A (TRPV4) from Cayman chemicals, and GSK1702934A (TRPC3, TRPC6 and TRPC7) from Tocris Bioscience. Antagonist Pyr3 was obtained from Tocris Bioscience, all other antagonists were synthesized in house. Data were acquired with a sampling rate of 20 kHz, low-pass filtered (10 kHz), and analyzed offline using Clampfit v10.4.2.0 (Molecular Devices).
Electrophysiology results were expressed as means±SD. Data were plotted, and sigmoidal fitting was done using OriginPro (from OriginLab), with the following Boltzmann function:
Using the patch clamp technique in the whole-cell configuration, compounds were screened by challenging hTRPC3 overexpressing HEK293 cells with GSK1702934A to activate TRPC3 and each of the synthesized compounds (10 μM) individually in the presence of the agonist.
To avoid tachyphylaxis and determine the IC50 of compound 22, each point of the dose response curve (FIG. 1B) was done individually on a cell and exchanging coverslips between cells. […] FIGS. 1D-1I show the inhibition of TRPC3-mediated currents by compound 22 and Pyr3 (serving as the reference control). […] Similar results were obtained when OAG was used as the agonist (data not shown).
In general terms: Patch clamp records ionic current or voltage across a cell membrane.

A short description of data set [8]: maximum tolerated dose / in vivo toxicity study in mice. The note with it: mouse, in vivo. As to the method:
The in vivo study was performed in compliance with the NIH Animal Use Guidelines and protocol approved by the Institutional Animal Care and Use Committee (IACUC) at the University of Tennessee Health Science Center (UTHSC, Memphis, Tenn.). NSG mice at 8 weeks (n=2) and ICR mice at 12 weeks (n=3) were housed with a 12:12-hour light-dark cycle and fed a breeder chow diet. Daily IP injections of 200 mg/kg of compounds 22 or 79 were administered for five consecutive injections in five mice, respectively, which were followed to monitor the mortality rate. Body weights of the mice were recorded daily.
as §1
Compound 79 is a metabolically stable version of Pyr3. Mice treated daily with compound 22 or compound 79 (n=5) for 5 consecutive days. All the mice were treated with either compound 22 or 79 at 200 mg/kg (IP). […]

Where two headings read alike, the source gives them in different places.

`CCOC(=O)c1cnn(-c2ccc(NC(=O)C(Cl)=C(Cl)Cl)cc2)c1C(F)(F)F` [Pyr3, reference compound]: the half-life time entry in data set [1], in data set [2] and in data set [3] was “less than 15 minutes” each time. For the same compound, the “protection against Aβ-induced damage to dendrites (MAP2/DAPI)” value in the data set on hippocampal neurons [4] is given as “protect against Aβ-induced damage to dendrites”. Further, the “toxicity in neuronal culture” value in the data set with hippocampal neurons [5] was “lack of toxicity”. Further, the IC50 (usually the concentration at which inhibition is half-maximal) is 700 nM on TRPC3 [6] and 0.53 ± 0.05 µM on TRPC3 [7] (agonist GSK1702934A, HEK293 whole-cell patch clamp, read-out: hTRPC3 IC50 (μM, mean ± SEM)). The “hTRPC3 % Inhibition at 10 μM (mean ± SEM)” value on TRPC3 [7] (10 μM compound in presence of agonist GSK1702934A, HEK293 whole-cell peak current) was determined as 91.72 ± 0.53%.
Take `CCOC(=O)c1cnn(-c2ccc(-n3ccc(Cl)c(Br)c3=O)cc2)c1C(F)(F)F` [Compound 8, Ethyl 1-(4-(3-bromo-4-chloro-2-oxopyridin-1(2H)-yl)phenyl)-5-(trifluoromethyl)-1H-pyrazole-4-carboxylate]: the “survival of treated mice” value in data set [8] is given as “alive”.

These data come from patent US20230265068A1, “TRANSIENT RECEPTOR POTENTIAL CANONICAL 3 INHIBITORS AND METHODS OF USE THEREOF” (University of Tennessee Research Foundation, priority 2020, published 2023).
